Entries after “also recorded” stand apart in the source; their conditions may differ. No end group written: not given here.
Biological target: T1, MLH1-ΔConMot-PMS2 (Homo sapiens, UniProt P40692+P54278, DEL377-396)
T1 construct: The pcDNA3 expression vector containing the entire open reading frame of human MLH1; expressed in transfected cells; host or cells: HEK293T (MLH1-deficient), transiently co-transfected
T1 sequence (P40692 with tags, fused parts or gaps DEL377-396): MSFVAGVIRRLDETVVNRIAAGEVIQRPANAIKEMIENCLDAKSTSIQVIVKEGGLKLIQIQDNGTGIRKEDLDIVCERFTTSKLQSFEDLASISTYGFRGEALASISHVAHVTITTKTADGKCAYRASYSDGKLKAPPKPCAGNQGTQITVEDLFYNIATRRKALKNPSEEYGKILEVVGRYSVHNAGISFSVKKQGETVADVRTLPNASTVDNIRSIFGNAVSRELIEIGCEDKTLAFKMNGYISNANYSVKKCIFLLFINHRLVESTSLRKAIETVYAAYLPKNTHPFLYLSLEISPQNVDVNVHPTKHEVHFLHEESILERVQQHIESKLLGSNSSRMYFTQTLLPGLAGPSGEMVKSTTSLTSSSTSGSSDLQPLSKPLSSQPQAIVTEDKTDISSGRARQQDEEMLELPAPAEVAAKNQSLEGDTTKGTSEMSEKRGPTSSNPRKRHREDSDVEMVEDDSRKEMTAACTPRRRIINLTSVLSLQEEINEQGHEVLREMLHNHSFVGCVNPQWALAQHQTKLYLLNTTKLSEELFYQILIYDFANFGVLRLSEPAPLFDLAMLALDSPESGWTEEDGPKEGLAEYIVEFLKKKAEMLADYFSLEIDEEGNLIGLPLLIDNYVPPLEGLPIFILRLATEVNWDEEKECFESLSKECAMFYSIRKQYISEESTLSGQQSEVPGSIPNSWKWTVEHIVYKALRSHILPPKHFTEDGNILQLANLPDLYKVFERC
T1 sequence (P54278 1-862 partner): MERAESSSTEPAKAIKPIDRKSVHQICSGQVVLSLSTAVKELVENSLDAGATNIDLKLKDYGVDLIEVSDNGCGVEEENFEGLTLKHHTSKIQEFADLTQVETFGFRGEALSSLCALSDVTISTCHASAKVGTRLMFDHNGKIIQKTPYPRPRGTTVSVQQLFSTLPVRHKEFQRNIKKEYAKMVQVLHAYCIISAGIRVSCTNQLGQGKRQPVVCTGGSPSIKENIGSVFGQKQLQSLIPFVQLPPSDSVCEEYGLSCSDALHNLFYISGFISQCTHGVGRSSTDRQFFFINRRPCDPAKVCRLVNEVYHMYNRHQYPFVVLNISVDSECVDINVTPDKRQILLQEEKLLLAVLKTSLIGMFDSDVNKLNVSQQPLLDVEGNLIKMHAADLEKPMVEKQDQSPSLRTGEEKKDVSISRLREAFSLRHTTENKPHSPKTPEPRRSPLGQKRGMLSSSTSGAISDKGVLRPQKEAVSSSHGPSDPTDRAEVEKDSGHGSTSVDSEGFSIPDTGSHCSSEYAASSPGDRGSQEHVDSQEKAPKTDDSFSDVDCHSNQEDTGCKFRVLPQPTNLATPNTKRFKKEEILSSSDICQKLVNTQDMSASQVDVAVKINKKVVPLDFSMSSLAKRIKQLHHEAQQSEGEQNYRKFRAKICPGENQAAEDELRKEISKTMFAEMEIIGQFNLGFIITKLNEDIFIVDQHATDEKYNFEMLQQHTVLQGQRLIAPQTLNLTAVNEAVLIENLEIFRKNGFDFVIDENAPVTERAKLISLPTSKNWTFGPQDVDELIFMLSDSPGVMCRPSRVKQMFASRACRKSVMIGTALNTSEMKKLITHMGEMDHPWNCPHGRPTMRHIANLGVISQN
Experiment: DNA mismatch repair (MMR) complementation assay with peptide, MLH1-ΔConMot variant
Assay type: biochemical
Experimental: Mismatch repair activity was assessed as described in detail before ([79],[81]) (Supplementary Figure S3). […] Mismatched DNA plasmid substrate (Supplementary Figure S3) prepared according to previously published procedures ([81–83]) was added, and reactions in a final volume of 25 μl were incubated at 37°C for 15 min. Repair efficiency was scored by purifying the mismatched DNA plasmid from the reaction and assessing the fraction of homoduplex sequence by restriction digestion of the mismatched site using EcoRV. The substrate was additionally linearized with AseI.
For complementation assays with peptide, the indicated peptide(s) were used at stock concentrations of 50 or 500 μM in HEPES–KOH 20 mM pH 7.6 and supplemented to the MMR reactions.
Figure 4. Reaction of DNA mismatch repair to addition of ConMot peptide. (A) Nuclear extract of MLH1-proficient HEK293 cells was used for performing the DNA mismatch repair reaction. Four reactions were undertaken, with two reactions supplemented with either 7.5 μM or 75 μM ConMot-32 peptide. A negative control reaction was performed by omitting the 37°C repair incubation. (B) MMR reactions were performed with nuclear extract of MLH1-deficient HEK293T cells supplemented with extract of cells transfected either with wildtype MLH1-PMS2 (positive control) or with MLH1-ΔConMot-PMS2. To these MMR reactions, different peptides were added at a concentration of 75 μM: A ConMot-32 peptide (A), a Scramble-32 peptide (B) in which the conserved ConMot sequence is scrambled, and a short ConMot-20 peptide (C) that only contains the twenty highly conserved ConMot residues. The peptide sequences are given below the gel image. (C) The concentration-dependence of the MMR-activating effect of the ConMot-32 peptide observed in (B) was measured over a concentration range from 1–75 μM. (D) Theoretical binding curves of a ligand (peptide) to a protein were calculated for dissociation constants (KD) of 1, 5 and 10 μM for a protein concentration as present for MLH1-PMS2 in the MMR assay reactions (see also Supplementary Figure S3). Into this diagram, the average MMR activities (and standard deviations) measured in >3 of the experiment exemplarily shown in C were introduced as bars at ConMot-32 peptide concentrations of 1, 2.5, 7.5, 18 and 75 μM.
Second, we used extract of the repair-deficient cell line HEK293T supplemented with either wildtype MutLα (MLH1-PMS2) or the ΔConMot deletion variant, corresponding to experiment shown in Figure 2B. In this experiment, we again added ConMot peptide.
We investigated the effect of the ConMot peptide more closely by titrating the required peptide concentrations for activation. We determined that the mismatch repair reactions performed in this study contained approximately 280 fmol MLH1 (Supplementary Figure S4A and B), which is in good agreement with previous quantifications of MLH1-PMS2 in cells and extracts ([96]). […] Dissociation constants (KD) for peptides to proteins are typically in the range of 1–10 μM ([97]). We compared the measured concentration-dependent MMR activities with theoretical binding curves of (peptide) ligands to (protein) substrates for KD values of 1, 5 and 10 μM (Supplementary Figure S4C) at the determined MLH1 concentration. […] It is therefore plausible that a binding reaction of the ConMot peptide (to a protein) underlies the restauration of MMR activity. […]
Deletion C on M ot (∆Co nMot) c.1129_1188del CTGCAGCCTCTGAGCAAA […]
Del et i on comp are (∆Compare) c.1221_1280del […] ACTGGACAGGGGTTTGCT
Scramble c.1147_1160delinsGAC ggtacgtTCCCGGGAACAGAAGCT atagtgtcCTGGTGGGCATAGACCT
p.(M383_D387delinsDTMVR) ACTATGGTAC G T TATC
ConMot hy bri d gcataTCTGCAGCCTCTGAGCAA acagg[…]
Supplementary Table 1: Analyzed variant inf ormation.
Variant descriptions confer to HGVS format and refer to the MLH1 reference cDNA (NM_000249.4) […]

[1] = ConMot-32, concentration range 1–75 μM, approximately 280 fmol MLH1 (11.1 nM), 37°C, 15 min, >3 experiments

SGSSDKVYAHQMVRTDSREQKLDAFLQPLSKP [ConMot-32]
peptide concentration at which almost complete activation was achieved (MMR) [1]: 75 µM | peptide concentration at which increase in MMR activity became detectable [1]: 1 µM | EC50 (ConMot-32, concentration range 1–75 μM, approximately 280 fmol MLH1 (11.1 nM), 37°C, 15 min, >3 experiments, read-out: peptide concentration at which 50% activation was achieved (MMR)): 7.5 µM | effect of peptide on MMR (summary in Supplementary Table 2) (molar ratio 0-860-2300-8600 to hMLH1-PMS2, Tris-HCl pH 7.5, 5 mM Mg2+, 1.5 mM ATP): activating | restoration of DNA mismatch repair activity of the ΔConMot variant (peptide 75 μM (Figure 4B), HEK293T nuclear extract 50 μg + 5 μg transfected extract, 25 μl, 37°C, 15 min, EcoRV/AseI digestion, agarose gel, listed as ConMot-peptide): could be overcome; also recorded: possible to overcome the MMR-deficiency

Source: paper PMC10325900, “A conserved motif in the disordered linker of human MLH1 is vital for DNA mismatch repair and its function is diminished by a cancer family mutation” (Nucleic Acids Research, 2023)
